How the values were obtained:
[1] = test system: T98G glioblastoma cells; assay: Apoptosis assay by sub-G0/G1 fraction estimation (apoptotic nuclear fragmentation); format: cell-based, human; conditions: T98G cells transfected with PME-1 specific dsRNA (so in the source)
Description: Apoptosis Assay by Sub-G0/G1 Fraction Estimation: […] After 24 hrs of treatment, both floating and adherent cells were harvested by centrifugation. […] The flow cytometric analysis of PI stained nuclei was performed and the recorded data was analyzed using a FACScan flow cytometer and software (Becton Dickinson) respectively. […] The treatments were given 48 hrs after transfection. Following 24 hrs of drug treatment the cells were lysed in hypotonic buffer, and their nuclei were stained with propidium iodide. The stained cell lysates were analysed to estimate the sub-G0/G1 fraction of fragmented nuclei by flow cytometry (FACS) (FIG. 1B).

[2] = test system: U87MG-luciferase glioblastoma cells; assay: Colony formation assay in U87MG-luciferase cells; format: cell-based; conditions: HDAC4 siRNA 48 hrs, then drug 48 hrs (combination)
Text: (§1) Cells plated in very low density (4-6×10^3) in 6-well plates were allowed to grow for about 7 days until they form small colonies. These cells were then transfected with Scrambled or HDAC4 siRNA using Lipofectamine RNAiMAX reagent (Invitrogen) according to the manufacturer's instructions. After 48 hrs, treatments were given with indicated concentration of chemical drugs for another 48 hrs. Cell colonies were washed with PBS, fixed with 3.7% formaldehyde and stained with 0.2% crystal violet solution (made in 10% ethanol) for 15 minutes at room temperature each. Excess stain was removed by repeated washings with PBS. Plates were dried and pictures were taken with Epson perfection V700 scanner and analysed with ImageJ.
(§2) The efficacy of the selected potent drugs was then tested by colony formation assay in […] T98G, and highly-tumorigenic U87MG-luciferase (luciferase expressing U87MG cells) glioblastoma cell lines. For this experiment, the cells were grown in 6-well plates in low density until the formation of small colonies which were then transfected with Scrambled or HDAC4 specific siRNA for 48 hrs followed by treatment with STS, PKC412, K252a, UCN-01 and CEP-701 at the indicated concentrations for another 48 hrs.

[3] = test system: T98G glioblastoma cells; assay: Colony formation assay in T98G cells; format: cell-based, human
Text: as §1, §2

[4] = HDAC4.2 siRNA transfected cells treated with drug

## O=C1NC(=O)c2c1c1c3ccccc3[nH]c1c1[nH]c3ccccc3c21 [Arcyriaflavin A, 12,13-Dihydro-5H-indolo [2,3-a] pyrrolo[3,4-c] carbazole-5,7(6H)-dione]
[1]; drug 5 μM
  Potentiation % (Scale): − ((−) 0-20%)
  Potentiation % (amount of apoptotic nuclear fragmentation): 5-10%

## C[C@]12O[C@H](C[C@]1(O)CO)n1c3ccccc3c3c4c(c5c6ccccc6n2c5c31)CNC4=O [CEP-701, (9S,10S,12R)-2,3,9,10,11,12-Hexahydro-10-hydroxy-10-(hydroxyme-thyl)-9-methyl-9,12-epoxy-1H-diindolo [1,2,3-fg:3′,2′,1′-kl] pyrrolo[3,4-i][1, 6] benzo di-azocin-1-one]
[1]; drug 3.5 μM
  Potentiation % (Scale): ++ ((++) 40-60%)
  Potentiation % (amount of apoptotic nuclear fragmentation): 40-50%
[1]; drug 5 μM
  Potentiation % (Scale): +++ ((+++) 60-80%)
  Potentiation % (amount of apoptotic nuclear fragmentation): 70-80%
[2]
  colony growth: less effective

## Cn1cc(C2=C(c3cn(C4CCN(Cc5ccccn5)CC4)c4ccccc34)C(=O)NC2=O)c2ccccc21 [Enzastaurin, 3-(1-Methyl-1H-indol-3-yl)-4-(1-(1-(2-pyridinylme-thyl)-4-piperidinyl)-1H-indol-3-yl)-1H-pyrrole-2,5-dione]
[1]; drug 5 μM
  Potentiation % (Scale): − ((−) 0-20%)
  Potentiation % (amount of apoptotic nuclear fragmentation): 10-20%

## Cn1c2ccccc2c2c3c(c4c5ccccc5n(CCC#N)c4c21)CNC3=O [GÖ-6976, 12-(2-Cyanoethyl)-6,7,12,13-tetrahydro-13-methyl-5-oxo-5H-indolo[2,3-a]pyrrolo[3,4-c]carbazole]
[1]; drug 5 μM
  Potentiation % (Scale): − ((−) 0-20%)
  Potentiation % (amount of apoptotic nuclear fragmentation): 10-20%

## COC(=O)[C@@]1(O)C[C@H]2O[C@]1(C)n1c3ccccc3c3c4c(c5c6ccccc6n2c5c31)C(=O)NC4 [K252a, (9S,10R,12R)-2,3,9,10,11,12-Hexahydro-10-hydroxy-9-methyl-1-oxo-9,12-epoxy-1H-diindolo [1,2,3-fg:3′,2′,1′-kl] pyrrolo[3,4-i][1,6] benzodi-azocine-10-carboxylic acid methyl ester]
[3]; HDAC4 siRNA 48 hrs, then drug 48 hrs (combination)
  colony growth: very potent in reducing the colony growth
[3]; [4]
  colony growth: reduction in the colony growth
[1]; drug 3.5 μM
  Potentiation % (Scale): ++ ((++) 40-60%)
  Potentiation % (amount of apoptotic nuclear fragmentation): 50-60%
[1]; drug 5 μM
  Potentiation % (Scale): ++++ ((++++) 80-100%)
  Potentiation % (amount of apoptotic nuclear fragmentation): 80-90%
[2]
  colony growth: very potent in reducing the colony growth

## O=C1NCc2c1c1c3ccccc3[nH]c1c1[nH]c3ccccc3c21 [K252c, 6,7,12,13-Tetrahydro-5H-indolo[2,3-a]pyrrolo[3,4-c] carbazol-5-one]
[1]; drug 5 μM
  Potentiation % (Scale): − ((−) 0-20%)
  Potentiation % (amount of apoptotic nuclear fragmentation): 10-20%

## CO[C@@H]1[C@H](N(C)C(=O)c2ccccc2)C[C@H]2O[C@@H]1n1c3ccccc3c3c4c(c5c6ccccc6n2c5c31)C(=O)NC4 [PKC412, [9S-(9α,10β,11β, 13α)]-N-(2,3,10, 11,12,13-Hexahydro-10-methoxy-9-methyl-1-oxo-9,13-epoxy-1 H,9H-diindolo [1,2,3-gh:3′,2′,1′-lm]pyrrolo [3,4-j][1,7]benzodiazonin-11-yl)-N-methyl ben-zamide]
[3]; [4]
  colony growth: reduction in the colony growth
[1]; drug 5 μM
  Potentiation % (Scale): ++ ((++) 40-60%)
  Potentiation % (amount of apoptotic nuclear fragmentation): 50-60%

## COC1C(CO)OC(n2c3c(Cl)cccc3c3c4c(c5c6cccc(Cl)c6[nH]c5c32)C(=O)NC4=O)C(O)C1O (stereo not drawn) [Rebeccamycin, 5h-indolo(2,3-a)pyrrolo(3,4-c)carbazole-5,7(6h)-dione,1,11-dichloro-12,13-dihy;dro-12-(4-o-methyl-beta-d-glucopyra-nosyl)]
[1]; drug 5 μM
  Potentiation % (Scale): − ((−) 0-20%)
  Potentiation % (amount of apoptotic nuclear fragmentation): 5-10%

## O=C1NC(=O)c2c1c1c3ccccc3n3c1c1c2c2ccccc2n1C1CCC3O1 [SB-218078, 9,10,11,12-Tetrahydro-9,12-epoxy-1H-diindolo [1,2.3-fg:3′,2′,1′-kl] pyrrolo [3,4-i][1,6] benzodi-azocine-1,3(2H)-dione]
[1]; drug 5 μM
  Potentiation % (Scale): + ((+) 20-40%)
  Potentiation % (amount of apoptotic nuclear fragmentation): 20-30%

## CN[C@@H]1C[C@H]2O[C@@](C)([C@@H]1OC)n1c3ccccc3c3c4c(c5c6ccccc6n2c5c31)C(=O)NC4 [Staurosporine, [9S-(9α,10β,11β, 13α)]-2,3,10,11, 12,13-Hexa-hydro-10-methoxy-9-methyl-11-(methylamino)-9,13-epoxy-1H,9H-diindolo [1,2,3-gh:3′,2′,1′-lm] pyrrolo [3,4-j][1,7] benzo diazonin-1-one]
[3]; [4]
  colony growth: reduction in the colony growth
[1]; drug 50 nM
  Potentiation % (Scale): + ((+) 20-40%)
  Potentiation % (amount of apoptotic nuclear fragmentation): 30-40%

## CN[C@@H]1C[C@H]2O[C@@](C)([C@@H]1OC)n1c3ccccc3c3c4c(c5c6ccccc6n2c5c31)C(=O)N[C@H]4O [UCN-01, (9S)-2,3,10,11,12,13-Hexahydro-3α-hydroxy-10α-methoxy-9-methyl-11α-methyl amino-9β,13β-epoxy-1H,9H-diindolo [1,2,3-gh:3′,2′,1′-lm] pyrrolo [3,4-j][1,7] benzo diazonin-1-one]
[1]; drug 1.5 μM
  Potentiation % (Scale): + ((+) 20-40%)
  Potentiation % (amount of apoptotic nuclear fragmentation): 20-30%
[1]; drug 2.5 μM
  Potentiation % (Scale): +++ ((+++) 60-80%)
  Potentiation % (amount of apoptotic nuclear fragmentation): 70-80%
